Source: ChEMBL document CHEMBL3769350, “Synthesis and biological evaluation of piperazine group-linked bivalent -carbolines as potential antitumor agents” (Medchemcomm, 2015)
pIC50: −log10 of the molar value. Activity calls are given as the source filed them. The calls are words filed in the database; no cut-off is given here.

Columns and labels:
A-375 = test: Cytotoxicity against human A375 cells by MTT assay; assay type: functional, cell-based
MCF7 = test: Cytotoxicity against human MCF7 cells by MTT assay; assay type: functional, cell-based
[1] = Cytotoxicity against human ECA109 cells by MTT assay; assay type: functional, cell-based; conditions: ECa-109
HepG2 = test: Cytotoxicity against human HepG2 cells by MTT assay; assay type: functional, cell-based
769-P = test: Cytotoxicity against human 769-P cells by MTT assay; assay type: functional, cell-based
[2] = Cytotoxicity against human BGC823 cells by MTT assay; assay type: functional, cell-based; conditions: BGC-823
CWR22R = test: Cytotoxicity against human 22Rv1 cells by MTT assay; assay type: functional, cell-based
[3] = Cytotoxicity against mouse LLC cells by MTT assay; assay type: functional, cell-based; conditions: Lewis lung carcinoma
HT-29 = test: Cytotoxicity against human HT-29 cells by MTT assay; assay type: functional, cell-based
[4] = Cytotoxicity against human SKOV3 cells by MTT assay; assay type: functional, cell-based; conditions: SK-OV-3
Chorioallantoic membrane = test: Antiangiogenic activity in chicken chorioallantoic membrane at 50 to 200 uM after 48 hrs by microscopic analysis; assay type: functional; conditions: Gallus gallus

**Q.** With `COc1cc(-c2nc(CN3CCN(Cc4cc5c([nH]c6ccccc65)c(-c5cc(OC)c(OC)c(OC)c5)n4)CC3)cc3c2[nH]c2ccccc23)cc(OC)c1OC` as the compound, how does the pIC50 (A-375) read?
**A.** < 4.00

**Q.** What about the pIC50 (MCF7) of the same compound?
**A.** < 4.00

**Q.** And the pIC50 [1]?
**A.** < 4.00

**Q.** What about the pIC50 (HepG2) of the same compound?
**A.** < 4.00

**Q.** What about the pIC50 (769-P) of the same compound?
**A.** < 4.00

**Q.** And the pIC50 [2]?
**A.** < 4.00

**Q.** What about the pIC50 (CWR22R) of the same compound?
**A.** < 4.00

**Q.** And the pIC50 [3]?
**A.** < 4.00

**Q.** What about the pIC50 (HT-29) of the same compound?
**A.** < 4.00

**Q.** And the pIC50 [4]?
**A.** < 4.00

**Q.** Which results are given for `COc1cc(-c2nc(CN3CCN(Cc4cc5c6ccccc6n(CCCc6ccccc6)c5c(-c5cc(OC)c(OC)c(OC)c5)n4)CC3)cc3c4ccccc4n(CCCc4ccccc4)c23)cc(OC)c1OC`?
**A.** pIC50 (A-375): < 4.00; pIC50 (MCF7): < 4.00; pIC50 [1]: < 4.00; pIC50 (HepG2): < 4.00; pIC50 (769-P): < 4.00; pIC50 [2]: < 4.00; pIC50 (CWR22R): < 4.00; pIC50 [3]: < 4.00; pIC50 (HT-29): < 4.00; pIC50 [4]: < 4.00

**Q.** With `Cc1nc(CN2CCN(Cc3cc4c5ccccc5n(C)c4c(C)n3)CC2)cc2c3ccccc3n(C)c12` as the compound, how does the pIC50 (A-375) read?
**A.** < 4.00

**Q.** And the pIC50 (MCF7)?
**A.** < 4.00

**Q.** And the pIC50 [1]?
**A.** < 4.00

**Q.** And the pIC50 (HepG2)?
**A.** < 4.00

**Q.** And the pIC50 (769-P)?
**A.** < 4.00

**Q.** What about the pIC50 [2] of the same compound?
**A.** 4.11

**Q.** What about the pIC50 (CWR22R) of the same compound?
**A.** 4.06

**Q.** What about the pIC50 [3] of the same compound?
**A.** 4.21

**Q.** And the pIC50 (HT-29)?
**A.** < 4.00

**Q.** What about the pIC50 [4] of the same compound?
**A.** 4.51

**Q.** Which results are given for `COc1ccc(-c2nc(CN3CCN(Cc4cc5c6ccccc6n(C)c5c(-c5ccc(OC)cc5)n4)CC3)cc3c4ccccc4n(C)c23)cc1`?
**A.** pIC50 (A-375): 4.34; pIC50 (MCF7): < 4.00; pIC50 [1]: 4.16; pIC50 (HepG2): 4.26; pIC50 (769-P): < 4.00; pIC50 [2]: 4.25; pIC50 (CWR22R): 4.32; pIC50 [3]: 4.16; pIC50 (HT-29): 4.54; pIC50 [4]: 4.24

**Q.** Which results are given for `Cc1nc(CN2CCN(Cc3cc4c5ccccc5n(CC(C)C)c4c(C)n3)CC2)cc2c3ccccc3n(CC(C)C)c12`?
**A.** pIC50 (A-375): 4.89; pIC50 (MCF7): 5.15; pIC50 [1]: 4.84; pIC50 (HepG2): 5.02; pIC50 (769-P): 4.89; pIC50 [2]: 4.97; pIC50 (CWR22R): 4.90; pIC50 [3]: 5.11; inhibition (Chorioallantoic membrane): Active; pIC50 (HT-29): 4.95; pIC50 [4]: 4.80

**Q.** With `CCCCn1c2ccccc2c2cc(CN3CCN(Cc4cc5c6ccccc6n(CCCC)c5c(-c5ccc(OC)c(OC)c5)n4)CC3)nc(-c3ccc(OC)c(OC)c3)c21` as the compound, how does the pIC50 (A-375) read?
**A.** 4.81

**Q.** And the pIC50 (MCF7)?
**A.** 4.84

**Q.** And the pIC50 [1]?
**A.** 4.49

**Q.** And the pIC50 (HepG2)?
**A.** 4.77

**Q.** And the pIC50 (769-P)?
**A.** 5.00

**Q.** And the pIC50 [2]?
**A.** 5.21

**Q.** What about the pIC50 (CWR22R) of the same compound?
**A.** 4.71

**Q.** What about the pIC50 [3] of the same compound?
**A.** 5.01

**Q.** What about the pIC50 (HT-29) of the same compound?
**A.** 4.93

**Q.** What about the pIC50 [4] of the same compound?
**A.** 4.59

**Q.** With `CCCCn1c2ccccc2c2cc(CN3CCN(Cc4cc5c6ccccc6n(CCCC)c5cn4)CC3)ncc21` as the compound, how does the pIC50 (A-375) read?
**A.** 4.77

**Q.** And the pIC50 (MCF7)?
**A.** 4.53

**Q.** What about the pIC50 [1] of the same compound?
**A.** 4.58

**Q.** What about the pIC50 (HepG2) of the same compound?
**A.** 4.82

**Q.** What about the pIC50 (769-P) of the same compound?
**A.** 4.42

**Q.** And the pIC50 [2]?
**A.** 5.02

**Q.** What about the pIC50 (CWR22R) of the same compound?
**A.** 4.36

**Q.** And the pIC50 [3]?
**A.** 5.63

**Q.** What about the pIC50 (HT-29) of the same compound?
**A.** 4.77

**Q.** And the pIC50 [4]?
**A.** 4.95

**Q.** With `CCn1c2ccccc2c2cc(CN3CCN(Cc4cc5c6ccccc6n(CC)c5c(-c5ccccc5)n4)CC3)nc(-c3ccccc3)c21` as the compound, how does the pIC50 (A-375) read?
**A.** 5.00

**Q.** What about the pIC50 (MCF7) of the same compound?
**A.** < 4.00

**Q.** What about the pIC50 [1] of the same compound?
**A.** < 4.00

**Q.** What about the pIC50 (HepG2) of the same compound?
**A.** < 4.00

**Q.** And the pIC50 (769-P)?
**A.** 4.53

**Q.** What about the pIC50 [2] of the same compound?
**A.** 4.41

**Q.** And the pIC50 (CWR22R)?
**A.** 4.60

**Q.** And the pIC50 [3]?
**A.** 4.85

**Q.** And the pIC50 (HT-29)?
**A.** 4.75

**Q.** What about the pIC50 [4] of the same compound?
**A.** 4.70

**Q.** Which results are given for `c1ccc(CCCn2c3ccccc3c3cc(CN4CCN(Cc5cc6c7ccccc7n(CCCc7ccccc7)c6cn5)CC4)ncc32)cc1`?
**A.** pIC50 (A-375): 5.08; pIC50 (MCF7): 5.12; pIC50 [1]: 4.61; pIC50 (HepG2): 5.05; pIC50 (769-P): 5.52; pIC50 [2]: 5.12; pIC50 (CWR22R): 5.27; pIC50 [3]: 5.29; pIC50 (HT-29): 4.73; pIC50 [4]: 5.26

**Q.** With `CCn1c2ccccc2c2cc(CN3CCN(Cc4cc5c6ccccc6n(CC)c5c(-c5ccc(OC)c(OC)c5)n4)CC3)nc(-c3ccc(OC)c(OC)c3)c21` as the compound, how does the pIC50 (A-375) read?
**A.** 4.43

**Q.** What about the pIC50 (MCF7) of the same compound?
**A.** 4.56

**Q.** And the pIC50 [1]?
**A.** 4.16

**Q.** What about the pIC50 (HepG2) of the same compound?
**A.** 4.57

**Q.** And the pIC50 (769-P)?
**A.** 4.21

**Q.** And the pIC50 [2]?
**A.** 4.70

**Q.** And the pIC50 (CWR22R)?
**A.** 4.37

**Q.** And the pIC50 [3]?
**A.** 5.01

**Q.** And the pIC50 (HT-29)?
**A.** 4.46

**Q.** What about the pIC50 [4] of the same compound?
**A.** 4.49

**Q.** With `c1ccc(Cn2c3ccccc3c3cc(CN4CCN(Cc5cc6c7ccccc7n(Cc7ccccc7)c6c(-c6ccccc6)n5)CC4)nc(-c4ccccc4)c32)cc1` as the compound, how does the pIC50 (A-375) read?
**A.** < 4.00

**Q.** What about the pIC50 (MCF7) of the same compound?
**A.** < 4.00

**Q.** And the pIC50 [1]?
**A.** < 4.00

**Q.** What about the pIC50 (HepG2) of the same compound?
**A.** < 4.00

**Q.** What about the pIC50 (769-P) of the same compound?
**A.** < 4.00

**Q.** What about the pIC50 [2] of the same compound?
**A.** < 4.00

**Q.** And the pIC50 (CWR22R)?
**A.** < 4.00

**Q.** And the pIC50 [3]?
**A.** < 4.00

**Q.** What about the pIC50 (HT-29) of the same compound?
**A.** < 4.00

**Q.** What about the pIC50 [4] of the same compound?
**A.** < 4.00

**Q.** With `COc1ccc(-c2nc(CN3CCN(Cc4cc5c6ccccc6n(CCCc6ccccc6)c5c(-c5ccc(OC)c(OC)c5)n4)CC3)cc3c4ccccc4n(CCCc4ccccc4)c23)cc1OC` as the compound, how does the pIC50 (A-375) read?
**A.** < 4.00

**Q.** And the pIC50 (MCF7)?
**A.** < 4.00

**Q.** What about the pIC50 [1] of the same compound?
**A.** < 4.00

**Q.** And the pIC50 (HepG2)?
**A.** < 4.00

**Q.** What about the pIC50 (769-P) of the same compound?
**A.** < 4.00

**Q.** And the pIC50 [2]?
**A.** < 4.00

**Q.** And the pIC50 (CWR22R)?
**A.** < 4.00

**Q.** And the pIC50 [3]?
**A.** < 4.00

**Q.** And the pIC50 (HT-29)?
**A.** < 4.00

**Q.** And the pIC50 [4]?
**A.** < 4.00

**Q.** With `CCn1c2ccccc2c2cc(CN3CCN(Cc4cc5c6ccccc6n(CC)c5cn4)CC3)ncc21` as the compound, how does the pIC50 (A-375) read?
**A.** 4.30

**Q.** What about the pIC50 (MCF7) of the same compound?
**A.** 4.08

**Q.** And the pIC50 [1]?
**A.** < 4.00

**Q.** And the pIC50 (HepG2)?
**A.** < 4.00

**Q.** And the pIC50 (769-P)?
**A.** 4.19

**Q.** What about the pIC50 [2] of the same compound?
**A.** 4.16

**Q.** And the pIC50 (CWR22R)?
**A.** 4.28

**Q.** And the pIC50 [3]?
**A.** 4.86

**Q.** What about the pIC50 (HT-29) of the same compound?
**A.** 4.48

**Q.** And the pIC50 [4]?
**A.** 4.61
